# A melting point compilation (Tetko et al.; mined from patent text by program, amines drawn as free bases though some values may be those of a salt)
row,SMILES,melting point [°C]
1,FC(F)(F)c1ccc(Oc2ccc3c(c2)OCC(c2ccccc2)O3)nc1 (stereo not drawn),104 to 110
2,COc1cnc(CSc2nc3cc4c(cc3[nH]2)OC(F)(F)O4)c(C)c1OC,160 to 161
3,Fc1ccc(-c2cc(C(F)(F)F)n3ncc(-c4ccncc4)c3n2)cc1Cl,265
4,CN(C)c1ncnc2c1ncn2Cc1c(Cl)cccc1Cl,174 to 175
5,Oc1ccc2nc(NC3=NCCN3)[nH]c2c1,254 to 258
6,Cc1ccc(-c2nc3ccc(C(C)(C)CN)cc3[nH]2)cc1,45 to 48
7,Cc1nc2cc(NC(=O)Nc3cccc(C(F)(F)F)c3)ccc2o1,184 to 186
8,COc1ccc2[nH]c(C(=O)OC(C)(C)C)c(N)c2c1,146 to 147
9,CC#CC(C)(C)NC(=O)C(CC)Oc1ccc2ncc(Br)cc2c1 (stereo not drawn),109 to 112
10,Cc1cc(C(=O)NC/C=C\COc2ncccc2CN2CCCCC2)n[nH]1,93 to 95
11,CC(=O)OCC1CCn2c(c(C3=C(c4cn(C)c5ccc(Br)cc45)C(=O)OC3=O)c3ccccc32)C1 (stereo not drawn),215 to 220
12,CN1C(=O)C(NC(=O)Nc2cccc([N+](=O)[O-])c2)N=C(c2ccccc2)c2ccccc21 (stereo not drawn),288 to 289
13,O=C(CCN1CCNCC1)Nc1ccc2c(c1)C(=O)c1cc(NC(=O)CCN3CCNCC3)ccc1C2=O,218
14,CCOC(=O)c1ccc(-c2ncc(-c3ccc(Cl)cc3)o2)cc1,195 to 197
15,CC(=O)c1ccc(CBr)s1,58 to 59
16,Cc1ncc(C(=S)Nc2c(Cl)cncc2Cl)cc1OC1CCCC1,144 to 145
17,CCCn1c(=O)[nH]c(=S)c2[nH]c(C=Cc3ccccc3)nc21,> 290
18,COC(=O)C(=O)c1ccc(OCCCNC(=O)c2ccc3ccccc3c2)cc1,143 to 144
19,COc1ncc(-c2ccccc2)c(C(=O)N(C)Cc2cc(C(F)(F)F)cc(C(F)(F)F)c2)n1,97.5 to 98.5
20,COC(=O)CS(=O)(=O)Nc1ccc(F)cc1C(F)(F)F,84 to 86
21,c1ccc2c(c1)C1CC2(CC2CN(CC3CC3)CCO2)c2ccccc21 (stereo not drawn),88 to 90
22,CCCCC1(CCCC)CS(=O)(=O)c2ccc(N(C)C)cc2C(c2ccc(OCc3ccc(CN(CC(=O)O)CC(=O)O)cc3)cc2)C1O (stereo not drawn),175
23,O=S(=O)(Nc1nccs1)c1ccc(Nc2nc(OCC3CCCCC3)c3nc[nH]c3n2)cc1,152 to 154
24,Nc1cc(S(=O)(=O)c2ccccc2)ccc1Cl,105 to 107

row,SMILES,melting point [°C]
1,Cc1nc2ccccn2c1-c1csc(Nc2ccc(C(=O)Nc3ccccc3N)cc2)n1,161 to 165
2,Cc1cn(C)c2cc(C(F)(F)F)c(O)cc12,256
3,O=C(O)c1cc(N=C=S)cc(N=C=S)c1,125 to 127
4,COc1ccc(Cn2c3ccccc3c3c(N)c(C(=O)O)c(C)nc32)cc1,206 to 208
5,CC(C(=O)O)c1ccc2nc3ccc(S(C)(=O)=O)cn3c(=O)c2c1 (stereo not drawn),240
6,Cc1cc2nnn(C(=O)N3CCOCC3)c2cc1C,191
7,COC(=O)NCc1nc2ccn(Cc3ccc(F)cc3)cc-2n1,179
8,O=[N+]([O-])c1ccc(OCCCl)cc1,60
9,Cc1[nH]cnc1CCC(=O)N(C)C,62 to 64
10,Cc1cc(CNC(=O)c2cc(-c3ccc(-c4ccccc4)cc3)nn2C)ccc1OC(C)(C)C(=O)O,90 to 95
11,CC(=O)NC(CF)COC1CCN(c2nc3ccc(OCC4CC4)cc3o2)CC1 (stereo not drawn),120 to 121
12,O=C(N[C@H]1CC[C@H](CCN2CCC(c3cccc4c3CCO4)CC2)CC1)c1ccc(-n2cccn2)cc1,258
13,Clc1cc2c(cc1Cn1ccnc1-c1ccccc1)OCO2,163
14,C[C@@H](NC(=O)c1ccc(-c2ccc(Cl)cc2)o1)[C@](O)(Cn1cncn1)c1ccc(F)cc1F,218 to 219
15,CC(C)COC[C@H](CC(C)C)NC(=O)[C@H]1O[C@@H]1C(=O)OC(C)(C)C,73.5 to 74.5
16,Cc1nc(-c2ccc([N+](=O)[O-])cc2)sc1C(=O)O,252 to 253
17,CS(=O)(=O)c1ccc(-c2[nH]c3ccc(Cl)cc3c2-c2ccc(S(C)(=O)=O)cc2)cc1,173 to 175
18,O=S(=O)(c1cccc2c(Cl)cccc12)N1CC2CCC(CC2)C1,105 to 106
19,Cc1cc2c(s1)C(C(=O)O)CC2=O (stereo not drawn),137 to 139
20,O=C(O)COc1c(-c2cccc(C(F)(F)F)c2)cc(C(=O)NCCCCCCOCc2ccc(OCc3ccccc3)cc2)cc1-c1cccc(C(F)(F)F)c1,127 to 130
21,Cc1ccccc1[C@@H](CCC(=O)O)Oc1cc(OCc2cccnc2)ccc1[N+](=O)[O-],117 to 119
22,NC[C@@H]1C[C@@H](CC(=O)O)C(=O)N1CCCc1ccccc1,188 to 192
23,CC#Cc1cn(C2OC(CO)C(O)C2O)c(=O)nc1N (stereo not drawn),241 to 243
24,c1ccc(CN2CCC3(CC2)Oc2ccccc2Cn2cccc23)cc1,109 to 111
